Patent publication US9023821B2, “Use of MicroRNA for treating diseases associated with a dysfunction of the cilia in multiciliated epithelial cells” (Centre National de la Recherche Scientifique, priority 2009, dated 2015)

Tests used:
[1] = test system: human airway epithelial cells (HAECs); assay: High-throughput sequencing (HTS) of miRNAs at four stages of differentiation of HAECs; conditions: for Modulation (ratio of the level of intensity of expression in log2 in two stages of differentiation) measured by high-throughput sequencing, D7 − D0 / Modulation (ratio of the level of intensity of expression in log2 in two stages of differentiation) measured by high-throughput sequencing, FC − D7 / Modulation (ratio of the level of intensity of expression in log2 in two stages of differentiation) measured by high-throughput sequencing, WD − D0 / Modulation (ratio of the level of intensity of expression in log2 in two stages of differentiation) measured by high-throughput sequencing, WD − FC / Level of intensity of expression in log2 measured by high-throughput sequencing, D0 / Level of intensity of expression in log2 measured by high-throughput sequencing, D7 / Level of intensity of expression in log2 measured by high-throughput sequencing, FC / Level of intensity of expression in log2 measured by high-throughput sequencing, WD: Table VI; for Level of intensity of expression in log2 At the differentiated stage (WD) measured in HTS: healthy human airway epithelial tissue; for Level of intensity of expression in log2 measured by high-throughput sequencing, D0: stage D0; for Level of intensity of expression in log2 measured by high-throughput sequencing, D7: stage D7; for Level of intensity of expression in log2 measured by high-throughput sequencing, FC: stage FC; for Level of intensity of expression in log2 At the differentiated stage (WD) measured in HTS / Level of intensity of expression in log2 measured by high-throughput sequencing, WD: stage WD; for Modulation (ratio of the level of intensity of expression in log2 in two stages of differentiation), D7 − D0 / Modulation (ratio of the level of intensity of expression in log2 in two stages of differentiation), FC − D7 / Modulation (ratio of the level of intensity of expression in log2 in two stages of differentiation), WD − FC / Abundance (%), D0 / Abundance (%), D7 / Abundance (%), FC / Abundance (%), WD: HTS; for Abundance (%), D0: ALI-D0; for Abundance (%), D7: ALI-D7; for Abundance (%), FC: ALI-FC; for Abundance (%), WD: ALI-WD
Outline: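 Small-RNA libraries from differentiating HAECs (ALI-D0 to ALI-WD) were built by ligation-based SOLiD chemistry, size-selected and sequenced. Strand counts were normalized per million reads, converted to percentage abundance, and filtered on adjusted P-value below 0.05.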

[2] = test system: human airway epithelial cells (HAECs); assay: Agilent miRNA chips, miRNA expression at four stages of differentiation of HAECs; conditions: for Modulation (ratio of the level of intensity of expression in log2 in two stages of differentiation) measured with the Agilent chips, D7 − D0 / Modulation (ratio of the level of intensity of expression in log2 in two stages of differentiation) measured with the Agilent chips, FC − D7 / Modulation (ratio of the level of intensity of expression in log2 in two stages of differentiation) measured with the Agilent chips, WD − D0 / Modulation (ratio of the level of intensity of expression in log2 in two stages of differentiation) measured with the Agilent chips, WD − FC / Level of intensity of expression in log2 measured with the Agilent chips, D0 / Level of intensity of expression in log2 measured with the Agilent chips, D7 / Level of intensity of expression in log2 measured with the Agilent chips, FC / Level of intensity of expression in log2 measured with the Agilent chips, WD: Table VI; for Modulation (ratio of the level of intensity of expression in log2 at two stages of differentiation), FC − D7 / Modulation (ratio of the level of intensity of expression in log2 at two stages of differentiation), WD − FC: Agilent miRNA chips, Table V; for Level of intensity of expression in log2 measured with the Agilent chips, D0: stage D0; for Level of intensity of expression in log2 measured with the Agilent chips, D7: stage D7; for Level of intensity of expression in log2 measured with the Agilent chips, FC: stage FC; for Level of intensity of expression in log2 measured with the Agilent chips, WD: stage WD
Outline: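 Patient RNA samples, the same ones analysed by high-throughput sequencing, were first labelled, then hybridized onto arrays carrying 866 human and 89 human viral miRNAs (miRBase v.12.0), following the supplied labelling and hybridization protocol.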

[3] = test system: basal cells and pyramidal cells of the airway epithelium; assay: miRNA expression in sorted basal cells versus pyramidal cells (ciliated + secretory), HTS and Agilent chips; design: species or system human; conditions: for Modulation of expression of the miRNAs in pyramidal cells (323(−)) relative to basal cells 323(+): HTS and Agilent chips; for Intensity of the level of expression in log2 in pyramidal cells (323(−)): pyramidal cells (ciliated + secretory)
Outline: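 Epithelium dissociated from nasal polyps is held 30 min in PBS-BSA-EDTA, then labelled 20 min at 4° C for CD151 and tissue factor. After DAPI staining, live single cells are sorted into marker-double-positive and double-negative fractions, and sort purity and identity are verified. Total RNA then undergoes miRNA profiling on arrays or by sequencing.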

Substance	Modulation (ratio of the level of intensity of expression in log2 in two stages of differentiation) measured by high-throughput sequencing, D7 − D0 [1] [log2]	Modulation (ratio of the level of intensity of expression in log2 in two stages of differentiation) measured by high-throughput sequencing, FC − D7 [1] [log2]	Modulation (ratio of the level of intensity of expression in log2 in two stages of differentiation) measured by high-throughput sequencing, WD − D0 [1] [log2]	Modulation (ratio of the level of intensity of expression in log2 in two stages of differentiation) measured by high-throughput sequencing, WD − FC [1] [log2]	Level of intensity of expression in log2 At the differentiated stage (WD) measured in HTS [1] [log2]	Level of intensity of expression in log2 measured by high-throughput sequencing, D0 [1] [log2]	Level of intensity of expression in log2 measured by high-throughput sequencing, D7 [1] [log2]	Level of intensity of expression in log2 measured by high-throughput sequencing, FC [1] [log2]	Level of intensity of expression in log2 measured by high-throughput sequencing, WD [1] [log2]	Modulation (ratio of the level of intensity of expression in log2 in two stages of differentiation) measured with the Agilent chips, D7 − D0 [2] [log2]	Modulation (ratio of the level of intensity of expression in log2 at two stages of differentiation), FC − D7 [2] [log2]	Modulation (ratio of the level of intensity of expression in log2 in two stages of differentiation) measured with the Agilent chips, FC − D7 [2] [log2]	Modulation (ratio of the level of intensity of expression in log2 in two stages of differentiation) measured with the Agilent chips, WD − D0 [2] [log2]	Modulation (ratio of the level of intensity of expression in log2 at two stages of differentiation), WD − FC [2] [log2]	Modulation (ratio of the level of intensity of expression in log2 in two stages of differentiation) measured with the Agilent chips, WD − FC [2] [log2]	Level of intensity of expression in log2 measured with the Agilent chips, D0 [2] [log2]	Level of intensity of expression in log2 measured with the Agilent chips, D7 [2] [log2]	Level of intensity of expression in log2 measured with the Agilent chips, FC [2] [log2]	Level of intensity of expression in log2 measured with the Agilent chips, WD [2] [log2]	Modulation of expression of the miRNAs in pyramidal cells (323(−)) relative to basal cells 323(+) [3]	also measured
hsa-miR-100: human miRNA, SEQ ID No. 1 (AACCCGUAGAUCCGAACUUGUG; expressed or natural sequence; listed as Homo sapiens)	−1.05	−2.36	−1.72	1.69	9.00	10.72	9.67	7.32	9.00	−0.46	−1.25	−1.25	−1.49	0.22	0.22	8.00	7.55	6.29	6.52	1.62	Intensity of the level of expression in log2 in basal cells (323(+)) [3]: 3.28 log2; Intensity of the level of expression in log2 in pyramidal cells (323(−)) [3]: 4.90 log2
hsa-miR-106b: human miRNA, SEQ ID No. 2 (UAAAGUGCUGACAGUGCAGAU; expressed or natural sequence; listed as Homo sapiens)	1.33	−0.28	0.96	−0.09	5.39	4.43	5.76	5.48	5.39	1.39	−0.53	−0.53	0.69	−0.18	−0.18	8.08	9.47	8.94	8.77	−2.05	Intensity of the level of expression in log2 in basal cells (323(+)) [3]: 7.22 log2; Intensity of the level of expression in log2 in pyramidal cells (323(−)) [3]: 5.16 log2
hsa-miR-125a-5p: human miRNA, SEQ ID No. 3 (UCCCUGAGACCCUUUAACCUGUGA; expressed or natural sequence; listed as Homo sapiens)	0.64	−0.27	1.16	0.79	14.08	12.92	13.55	13.29	14.08	1.29	−0.46	−0.46	0.79	−0.04	−0.04	7.37	8.66	8.20	8.15	−0.05	Modulation (ratio of the level of intensity of expression in log2 in two stages of differentiation), D7 − D0 [1]: 0.64 log2; Modulation (ratio of the level of intensity of expression in log2 in two stages of differentiation), FC − D7 [1]: −0.27 log2; Modulation (ratio of the level of intensity of expression in log2 in two stages of differentiation), WD − FC [1]: 0.79 log2; Abundance (%), D0 [1]: 1.69%; Abundance (%), D7 [1]: 2.64%; Abundance (%), FC [1]: 2.13%; Abundance (%), WD [1]: 2.79%; Intensity of the level of expression in log2 in basal cells (323(+)) [3]: 6.63 log2; Intensity of the level of expression in log2 in pyramidal cells (323(−)) [3]: 6.58 log2
hsa-miR-130a: human miRNA, SEQ ID No. 4 (CAGUGCAAUGUUAAAAGGGCAU; expressed or natural sequence; listed as Homo sapiens)	−1.40	0.19	−1.94	−0.73	11.98	13.91	12.51	12.71	11.98	0.65	−1.53	−1.53	−1.31	−0.43	−0.43	8.83	9.48	7.95	7.52	−6.33	Modulation (ratio of the level of intensity of expression in log2 in two stages of differentiation), D7 − D0 [1]: −1.40 log2; Modulation (ratio of the level of intensity of expression in log2 in two stages of differentiation), FC − D7 [1]: 0.19 log2; Modulation (ratio of the level of intensity of expression in log2 in two stages of differentiation), WD − FC [1]: −0.73 log2; Abundance (%), D0 [1]: 3.38%; Abundance (%), D7 [1]: 1.28%; Abundance (%), FC [1]: 1.42%; Abundance (%), WD [1]: 0.65%; Intensity of the level of expression in log2 in basal cells (323(+)) [3]: 9.76 log2; Intensity of the level of expression in log2 in pyramidal cells (323(−)) [3]: 3.43 log2; cell type in which the miRNA is specifically expressed ([3]; sorted ciliated/pyramidal versus basal cells): more specific to the basal cells
